Data published in patent US10287288B2, “Factor XIa macrocyclic inhibitors bearing alkyl or cycloalkyl P2' moieties” (BRISTOL-MYERS SQUIBB COMPANY, priority 2015, dated 2019).
Where two headings read alike, the source gives them in different places.

Legend:
[1] = rcm bond
[2] = target: T1, purified human Factor XIa (Homo sapiens, UniProt P03951); experiment: Factor XIa inhibition assay (chromogenic substrate hydrolysis, Ki); format: biochemical; conditions: substrate S-2366, pH 7.4
T1 construct: purchased Haematologic Technologies
T1 sequence (P03951 388-625 limits assumed): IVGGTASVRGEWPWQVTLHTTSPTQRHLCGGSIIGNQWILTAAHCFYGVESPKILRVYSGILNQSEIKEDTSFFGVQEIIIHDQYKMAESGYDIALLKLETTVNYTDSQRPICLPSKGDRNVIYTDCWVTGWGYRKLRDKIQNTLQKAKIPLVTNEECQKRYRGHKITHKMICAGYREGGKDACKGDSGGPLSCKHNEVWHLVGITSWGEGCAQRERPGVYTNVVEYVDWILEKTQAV
T1 sequence (P03951 19-387 partner limits assumed): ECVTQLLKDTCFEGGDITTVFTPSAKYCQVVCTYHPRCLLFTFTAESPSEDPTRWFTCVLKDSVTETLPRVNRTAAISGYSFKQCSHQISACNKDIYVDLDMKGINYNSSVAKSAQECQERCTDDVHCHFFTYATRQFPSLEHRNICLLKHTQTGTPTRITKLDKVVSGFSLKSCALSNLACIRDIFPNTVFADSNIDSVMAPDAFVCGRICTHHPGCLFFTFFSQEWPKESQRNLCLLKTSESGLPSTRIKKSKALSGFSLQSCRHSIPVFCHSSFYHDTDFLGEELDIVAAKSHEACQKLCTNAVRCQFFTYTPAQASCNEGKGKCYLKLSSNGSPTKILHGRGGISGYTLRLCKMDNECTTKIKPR

[3] = target: T2, purified human plasma kallikrein (Homo sapiens, UniProt P03952); experiment: Plasma kallikrein inhibition assay (chromogenic substrate hydrolysis, Ki); format: biochemical; conditions: substrate S-2302, pH 7.5
T2 construct: Plasma prekallikrein is a zymogen of a trypsin-like serine protease; purchased Enzyme Research Laboratories
T2 sequence (P03952 391-638 limits assumed): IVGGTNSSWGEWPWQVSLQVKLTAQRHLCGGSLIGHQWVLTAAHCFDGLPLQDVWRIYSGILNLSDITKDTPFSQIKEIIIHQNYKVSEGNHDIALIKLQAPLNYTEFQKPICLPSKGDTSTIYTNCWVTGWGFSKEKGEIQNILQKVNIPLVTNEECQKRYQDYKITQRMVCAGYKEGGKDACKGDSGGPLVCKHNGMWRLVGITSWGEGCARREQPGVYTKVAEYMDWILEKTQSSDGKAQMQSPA
T2 sequence (P03952 20-390 partner limits assumed): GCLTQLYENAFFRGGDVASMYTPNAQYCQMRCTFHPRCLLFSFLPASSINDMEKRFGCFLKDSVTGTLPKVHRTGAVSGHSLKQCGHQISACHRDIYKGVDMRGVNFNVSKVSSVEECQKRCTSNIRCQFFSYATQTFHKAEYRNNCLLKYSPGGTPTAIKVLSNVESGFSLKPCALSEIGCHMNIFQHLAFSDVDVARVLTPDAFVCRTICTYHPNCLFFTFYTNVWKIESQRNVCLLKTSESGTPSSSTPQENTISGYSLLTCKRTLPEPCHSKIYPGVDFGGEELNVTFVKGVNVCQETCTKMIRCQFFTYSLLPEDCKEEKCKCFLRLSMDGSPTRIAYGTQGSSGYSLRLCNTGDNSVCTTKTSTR

SMILES | Ki [2] [nM] | Ki [3] [nM] | further results
CC(C)(C)OC(=O)N[C@H]1CC=CCCNC(=O)[C@@H]2C[C@@H]2c2ccnc1c2 | – | – | ring closure, isolated yield ([1]; from C=CCCNC(=O)[C@@H]1C[C@@H]1c1ccnc([C@H](CC=C)NC(=O)OC(C)(C)C)c1, 13-membered ring, Grubbs II (0.2 eq)/pTsOH, DCM, 4.7 mM, 40.0 °C, 2.0 h): 65%
COC(=O)[C@H]1Cc2cccc(c2)[C@@H](NC(=O)OCc2ccccc2)C/C=C/[C@@H](C)C(=O)N1 | – | – | ring closure, isolated yield ([1]; from C=CC[C@H](NC(=O)OCc1ccccc1)c1cccc(C[C@@H](NC(=O)[C@H](C)C=C)C(=O)OC)c1, 12-membered ring, Grubbs II (0.2 eq), microwave 45 min, DCE, 9.8 mM, 120.0 °C, 0.75 h): 53.2%
C[C@@H]1/C=C/C[C@H](NC(=O)OC(C)(C)C)c2cc(ccn2)C(C)(C)CNC1=O | – | – | ring closure, isolated yield ([1]; from C=CC[C@H](NC(=O)OC(C)(C)C)c1cc(C(C)(C)CNC(=O)[C@H](C)C=C)ccn1, 12-membered ring, Grubbs II (0.4 eq), microwave 30 min, DCE, 49.8 mM, 120.0 °C, 0.5 h): 43%
C[C@@H]1/C=C/C[C@H](NC(=O)OCc2ccccc2)c2cccc(c2)C[C@H](CC#N)NC1=O | – | – | ring closure, isolated yield ([1]; from C=CC[C@H](NC(=O)OCc1ccccc1)c1cccc(C[C@H](CC#N)NC(=O)[C@H](C)C=C)c1, 12-membered ring, Grubbs II (0.2 eq), microwave 30 min, DCE, 8.5 mM, 120.0 °C, 0.5 h): 56.2%
COC(=O)[C@H]1Cc2cccc(c2)[C@@H](n2cnc(-c3cc(Cl)ccc3-n3cc(Cl)nn3)cc2=O)CCC[C@@H](C)C(=O)N1 [Example 1, methyl (3R,6R,10S)-10-{4-[5-chloro-2-(4-chloro-1H-1,2,3-triazol-1-yl)phenyl]-6-oxo-1,6-dihydropyrimidin-1-yl}-6-methyl-5-oxo-4-azabicyclo[9.3.1]pentadeca-1(15),11,13-triene-3-carboxylate] | 53 | – | –
C[C@@H]1CCC[C@H](n2cnc(-c3cc(Cl)ccc3-n3cc(C(F)(F)F)nn3)cc2=O)c2cccc(c2)C[C@H](CO)NC1=O [Example 2, (3R,6R,10S)-10-(4-{5-chloro-2-[4-(trifluoromethyl)-1H-1,2,3-triazol-1-yl]phenyl}-6-oxo-1,6-dihydropyrimidin-1-yl)-3-(hydroxymethyl)-6-methyl-4-azabicyclo[9.3.1]pentadeca-1(15),11,13-trien-5-one] | 445 | – | –
CNC(=O)OC[C@H]1Cc2cccc(c2)[C@@H](n2cnc(-c3cc(Cl)ccc3-n3cc(C(F)(F)F)nn3)cc2=O)CCC[C@@H](C)C(=O)N1 [Example 3, [(3R,6R,10S)-10-(4-{5-chloro-2-[4-(trifluoromethyl)-1H-1,2,3-triazol-1-yl]phenyl}-6-oxo-1,6-dihydropyrimidin-1-yl)-6-methyl-5-oxo-4-azabicyclo[9.3.1]pentadeca-1(15),11,13-trien-3-yl]methyl N-methylcarbamate] | 109 | – | –
COC(=O)NCC[C@H]1Cc2cccc(c2)[C@@H](n2cnc(-c3cc(Cl)ccc3-n3cc(C(F)(F)F)nn3)cc2=O)CCC[C@@H](C)C(=O)N1 [Example 4, methyl N-{2-[(3R,6R,10S)-10-(4-{5-chloro-2-[4-(trifluoromethyl)-1H-1,2,3-triazol-1-yl]phenyl}-6-oxo-1,6-dihydropyrimidin-1-yl)-6-methyl-5-oxo-4-azabicyclo[9.3.1]pentadeca-1(15),11,13-trien-3-yl]ethyl}carbamate] | 130 | 8270 | –
C[C@@H]1CCC[C@H](n2cnc(-c3cc(Cl)ccc3-n3cc(C(F)(F)F)nn3)cc2=O)c2cccc(c2)C[C@H](CC#N)NC1=O [Example 5, 2-[(3R,6R,10S)-10-(4-{5-chloro-2-[4-(trifluoromethyl)-1H-1,2,3-triazol-1-yl]phenyl}-6-oxo-1,6-dihydropyrimidin-1-yl)-6-methyl-5-oxo-4-azabicyclo[9.3.1]pentadeca-1(15),11,13-trien-3-yl]acetonitrile] | 284 | 4210 | –
Cc1c(C(=O)N[C@H]2CCC[C@@H](C)C(=O)N[C@@H](CC#N)Cc3cccc2c3)ncn1-c1cccc(Cl)c1F [Example 6, 1-(3-chloro-2-fluorophenyl)-N-[(3R,6R,10S)-3-(cyanomethyl)-6-methyl-5-oxo-4-azabicyclo[9.3.1]pentadeca-1(15),11,13-trien-10-yl]-5-methyl-1H-imidazole-4-carboxamide] | 986 | 6200 | –
COC(=O)NCC[C@@H]1Cc2cccc(c2)[C@@H](n2cnc(-c3cc(Cl)ccc3-n3cc(C(F)(F)F)nn3)cc2=O)CCC[C@@H](C)C(=O)N1 [Example 8, methyl N-{2-[(3S,6R,10S)-10-(4-{5-chloro-2-[4-(trifluoromethyl)-1H-1,2,3-triazol-1-yl]phenyl}-6-oxo-1,6-dihydropyrimidin-1-yl)-6-methyl-5-oxo-4-azabicyclo[9.3.1]pentadeca-1(15),11,13-trien-3-yl]ethyl}carbamate] | ≤ 5 | 1790 | –
C[C@@H]1CCC[C@H](n2cnc(-c3cc(Cl)ccc3-n3cc(C(F)(F)F)nn3)cc2=O)c2cccc(c2)C[C@@H](CC#N)NC1=O [Example 9, 2-[(3S,6R,10S)-10-(4-{5-chloro-2-[4-(trifluoromethyl)-1H-1,2,3-triazol-1-yl]phenyl}-6-oxo-1,6-dihydropyrimidin-1-yl)-6-methyl-5-oxo-4-azabicyclo[9.3.1]pentadeca-1(15),11,13-trien-3-yl]acetonitrile] | 5 | 1290 | –

More lines, main results first:

Ki [2] [nM] | Ki [3] [nM] | SMILES | further results
1420 | – | CC(=O)N1CCCC2NC(=O)[C@H](C)CCC[C@H](n3cnc(-c4c(-n5cc(Cl)nn5)ccc(Cl)c4F)cc3=O)c3cccc(c3)C21 (single isomer, unassigned) [Example 25] | –
120 | 6970 | CC(=O)N1CCCC2NC(=O)[C@H](C)CCC[C@H](n3cnc(-c4c(-n5cc(Cl)nn5)ccc(Cl)c4F)cc3=O)c3cccc(c3)C21 (single isomer, unassigned) [Example 26] | –
< 5 | 409 | C[C@@H]1CCC[C@H](n2cnc(-c3cc(Cl)ccc3-n3cc(C(F)(F)F)nn3)cc2=O)c2cccc(c2)C2C(CCCN2C)NC1=O (single isomer, unassigned) [Example 27] | –
1130 | 11200 | C[C@@H]1CCC[C@H](n2cnc(-c3cc(Cl)ccc3-n3cc(C(F)(F)F)nn3)cc2=O)c2cccc(c2)C2C(CCCN2C)NC1=O (single isomer, unassigned) [Example 28] | –
12.7 | 81.4 | O=C1NCCCCC[C@H](n2cnc(-c3cc(Cl)ccc3-n3cc(Cl)nn3)cc2=O)c2cc(ccn2)[C@H]2C[C@@H]12 [Example 31, (2S,4R,12S)-12-{4-[5-Chloro-2-(4-chloro-1H-1,2,3-triazol-1-yl)phenyl]-6-oxo-1,6-dihydropyrimidin-1-yl}-6,14-diazatricyclo[11.3.1.0^2,^4]heptadeca-1(17),13,15-trien-5-one] | –
27.8 | 1890 | O=C1CCCc2ccnc(c2)[C@@H](n2cnc(-c3cc(Cl)ccc3-n3cc(Cl)nn3)cc2=O)CCCCCN1 [Example 32, (12S)-12-{4-[5-Chloro-2-(4-chloro-1H-1,2,3-triazol-1-yl)phenyl]-6-oxo-1,6-dihydropyrimidin-1-yl}-6,14-diazabicyclo[11.3.1]heptadeca-1(17),13,15-trien-5-one] | –
355 | 3610 | O=C1NCC/C=C/C[C@H](n2cnc(-c3cc(Cl)ccc3-n3cc(Cl)nn3)cc2=O)c2cc(ccn2)[C@H]2C[C@@H]12 [Example 33, (2S,4R,9E,12S)-12-{4-[5-Chloro-2-(4-chloro-1H-1,2,3-triazol-1-yl)phenyl]-6-oxo-1,6-dihydropyrimidin-1-yl}-6,14-diazatricyclo[11.3.1.0^2,^4]heptadeca-1(17),9,13,15-tetraen-5-one] | –
96 | 3100 | O=C1NCCCCC[C@H](n2cnc(-c3cc(Cl)ccc3-n3cc(Cl)nn3)cc2=O)c2cc(ccn2)[C@@H]2C[C@H]12 [Example 34, (2R,4S,12S)-12-{4-[5-Chloro-2-(4-chloro-1H-1,2,3-triazol-1-yl)phenyl]-6-oxo-1,6-dihydropyrimidin-1-yl}-6,14-diazatricyclo[11.3.1.0^2,^4]heptadeca-1(17),13,15-trien-5-one] | –
